Laboratory results as given in patent US20250185696A1, “NOVEL MENAQUINONE-N (VITAMIN-K2-7) SUPPLEMENTATION FOR LIVESTOCK AND POULTRY” (SYNERGIA LIFE SCIENCES PVT LTD., priority 2022, published 2025).
“And” between values parts separate entries of the source, which are not always exact repeats. Equal values may be shown once.

Assays:
[1] = test system: Vencobb 400 breed of broiler chicken; assay: Pilot study in chicks: cage side observations; type: in vivo
Description: Cage side observations like daily life behavior patterns, odor of litter etc. were recorded.

[2] = test system: Vencobb 400 breed of broiler chicken; assay: Pilot study in chicks: body weight; type: in vivo; details: Treatment group
Description: (§1) A pilot study in 5605 chicks to evaluate the role of Menaquinone-n in bird weight increase, FCR and cost efficiency. The chicks were divided into Treatment group (N=2839) and Control group (N=2766). Menaquinone-7 (provided by Synergia Life Sciences as a 2000 ppm water dispersible powder) was administered to the treatment group for 30 days as per dosage outlined in Table 1. The birds were acclimatized for initial 4 days. Menaquinone-7 in divided doses was started on day 5 till day 30 and they were vaccinated on day 6.
(§2) 5605 day old chicks were selected for the study. They were divided into Treatment group consisting of 2839 chicks, while the remaining 2766 were included in the Control group. The chicks were acclimatized for initial 4 days.
(§3) Menaquinone-7 (provided by Synergia Life Sciences as a 2000 ppm water dispersible powder) was administered daily […] to the treatment group in daily dosages as outlined in Table 1. Menaquinone-7 in divided doses was started on day 5 till day 30 and the chicks were vaccinated on day 6. The body weight of the chicks was determined, and mortality rate observed on Day 11, Day 16, Day 22 and Day 28.
(§4) A poultry farm with two open shades was selected for the study. Vencobb 400 breed of broiler chicken were selected for the study. Vencobb 400 breed was selected because at breeder level it is an early maturing bird with early peak, sustained production and better feed efficiency. Vencobb 400 is known for its proven adaptability to varied climatic conditions and husbandry practices.
(§5) The chicks were housed in poultry sheds with tin rooting and open shade sides. Water was fed ad libitum through bell water feeders. The litter consisted of rice husk before housing the birds the cages were sanitized with hypo chloride, The chicks were provided with feed supplied from Godrej Tyson Foods, ad libitum.
(§6) Menaquinone 7 supplementation was in a drinking water as in Table 1. Water was made up to the required level as required daily.
Body weight was estimated by catching 5 birds in each group and determining the total weight and reporting the average at the intervals recorded in Table 2. At the end of treatment, after catching the total catching weight was recorded and the average weight determined.

Birds = assay: Comparative study of control and treated group (Table 4): mortality, weight, FCR; type: in vivo; details: Treated group, 2000 birds, K2 supplementation 15 g of 2000 ppm
Description: Feed conversion ratio was calculated by taking the total amount of feed consumed by the bird and dividing it by the amount of weight gained.

[3] = test system: Vencobb 400 breed of broiler chicken; assay: Pilot study in chicks: mortality; type: in vivo; details: for Cumulative Mortality: Treatment group (N=2839)
Description: as §1, §2, §3, §4, §5, §6

[4] = regular MK-7 intake; cited from earlier work

CC(C)=CCC/C(C)=C/CC/C(C)=C/CC/C(C)=C/CC/C(C)=C/CC/C(C)=C/CC/C(C)=C/CC1=C(C)C(=O)c2ccccc2C1=O [Menaquinone-7]
Ammonia odor in the litter (cage side observation) ([1]; Treatment group as compared to the control group): reduced ammonia odor | Stress due to heat, vaccination and crowding (cage side observation) ([1]; Treatment group in comparison to the control group): appeared comfortable | Average weight (kg) per chick ([2]; Day 0 (before dosing; dosing day 5 to day 30 in drinking water)): 0.05 kg | Average weight (kg) per chick ([2]; Day 5 (start of dosing)): 0.05 kg | Average weight (kg) per chick ([2]; Day 11): 0.622 kg | Average weight (kg) per chick ([2]; Day 16): 0.966 kg | Average weight (kg) per chick ([2]; Day 22): 1.36 kg | Average weight (kg) per chick ([2]; Day 28): 2 kg and 2.0 kg | Avg wt./bird (Birds): 2.1560 kg | FCR (Birds): 0.728 | Mortality (Birds): 1.8% | Cumulative Mortality ([3]; Day 0): 0 | Cumulative Mortality ([3]; Day 5 (start of dosing)): 30 | Cumulative Mortality ([3]; Day 11): 61 | Cumulative Mortality ([3]; Day 16): 87 | Cumulative Mortality ([3]; Day 22): 95 | Cumulative Mortality ([3]; Day 28): 100 | Overall reduction in mortality rate ([3]; Treatment group versus control group, end of 28th day): over 4% | Mortality rate/day ([3]; Treatment group, Day 5 (start of dosing)): 7.5 per day | Mortality rate/day ([3]; Treatment group, Day 11): 2.8 per day | Mortality rate/day ([3]; Treatment group, Day 16): 5.2 per day | Mortality rate/day ([3]; Treatment group, Day 22): 1.3 per day | Mortality rate/day ([3]; Treatment group, Day 28): 0.8 per day | Mortality % (overall mortality) ([3]; Treatment group, end of 28th day): 3.52% | Blood levels, times higher than when not regularly taken [4]: 7-8 times
